Results: ChEMBL document CHEMBL5537211, “Synthesis and Antifungal Activity of Stereoisomers of Mefloquine Analogs” (2024)
Values after ≈ are worked out from the molar mass of the structure shown.

What was measured:
Assay type in all cases: functional
Candida albicans [1] = assay: Antifungal activity against Candida albicans SC5314 assessed as fungal growth inhibition incubated for 24 hrs by CLSI protocol based microbroth dilution assay
Cryptococcus neoformans [2] = assay: Antifungal activity against Cryptococcus neoformans H99 assessed as fungal growth inhibition incubated for 72 hrs by CLSI protocol based microbroth dilution assay
Candida albicans [3] = assay: Antifungal activity against Candida albicans
Cryptococcus neoformans [4] = assay: Antifungal activity against Cryptococcus neoformans
Cryptococcus neoformans [5] = assay: Antifungal activity against Cryptococcus neoformans by CLSI M27-A3 protocol based absorbance assay
Candida albicans [6] = assay: Antifungal activity against Candida albicans by CLSI M27-A3 protocol based absorbance assay
[7] = Selectivity ratio of MIC for antifungal activity against Candida albicans SC5314 to MIC for antifungal activity against Cryptococcus neoformans H99

Compound: O[C@@H](c1cc(-c2ccc(Cl)cc2)nc2c(Cl)cccc12)[C@@H]1CCCCN1
- MIC (Candida albicans [1]): 8 µg/mL (≈ 20.7 µM)
- MIC (Cryptococcus neoformans [2]): 2 µg/mL (≈ 5.16 µM)

Compound: OC(Cn1cncn1)(Cn1cncn1)c1ccc(F)cc1F [FLUCONAZOLE]
- MIC (Candida albicans [1]): ≤ 0.125 µg/mL
- MIC (Cryptococcus neoformans [2]): 2 µg/mL (≈ 6.53 µM)

Compound: OC(c1cc(C2CC3CCC2CC3)nc2c(Cl)cc(Cl)cc12)C1CCCCN1 (racemic)
- MIC (Candida albicans [3]): 1.5 µg/mL (≈ 3.58 µM)
- MIC (Cryptococcus neoformans [4]): 0.4 µg/mL (≈ 0.954 µM)

Compound: O[C@H](c1cc(-c2ccc(Cl)cc2)nc2c(Cl)cccc12)[C@@H]1CCCCN1
- MIC (Candida albicans [1]): 4 µg/mL (≈ 10.3 µM)
- MIC (Cryptococcus neoformans [2]): 1 µg/mL (≈ 2.58 µM)

Compound: OC(c1cc(-c2ccc(Cl)cc2)nc2c(Cl)cccc12)C1CCCCN1 (racemic)
- MIC (Candida albicans [1]): 8 µg/mL (≈ 20.7 µM)
- MIC (Cryptococcus neoformans [2]): 2 µg/mL (≈ 5.16 µM)
- MIC (Cryptococcus neoformans [5]): 1 µg/mL (≈ 2.58 µM)
- MIC (Candida albicans [6]): 4 µg/mL (≈ 10.3 µM)

Compound: O[C@@H](c1cc(-c2ccc(Cl)cc2)nc2c(Cl)cccc12)[C@H]1CCCCN1
- MIC (Candida albicans [1]): 4 µg/mL (≈ 10.3 µM)
- MIC (Cryptococcus neoformans [2]): 1 µg/mL (≈ 2.58 µM)

Compound: O[C@@H](c1cc(C(F)(F)F)nc2c(C(F)(F)F)cccc12)[C@H]1CCCCN1 (racemic) [(S,R)-MEFLOQUINE]
- MIC (Candida albicans [3]): > 128 µg/mL
- MIC (Candida albicans [1]): 128 µg/mL (≈ 338 µM)
- MIC (Cryptococcus neoformans [2]): 16 µg/mL (≈ 42.3 µM)
- Selectivity ratio [7]: 8
- MIC (Cryptococcus neoformans [4]): 32 µg/mL (≈ 84.6 µM)

Compound: Cl.O[C@@H](c1cc(-c2ccc(Cl)cc2)nc2ccccc12)[C@H]1CCCCN1 (racemic)
- MIC (Candida albicans [1]): 16 µg/mL
- MIC (Cryptococcus neoformans [2]): 8 µg/mL

Compound: O[C@H](c1cc(-c2ccc(Cl)cc2)nc2c(Cl)cccc12)[C@H]1CCCCN1
- MIC (Candida albicans [1]): 8 µg/mL (≈ 20.7 µM)
- MIC (Cryptococcus neoformans [2]): 2 µg/mL (≈ 5.16 µM)

Compound: Cl.O[C@@H](c1cc(-c2ccc(Cl)cc2)nc2ccccc12)[C@@H]1CCCCN1 (racemic)
- MIC (Candida albicans [1]): 64 µg/mL
- MIC (Cryptococcus neoformans [2]): 16 µg/mL
